Results as given in patent publication US5482967A, “Condensed heterocyclic compounds, their production and use” (Takeda Chemical Industries, Ltd., priority 1992, dated 1996).

Assays:
[1] = biological target: T1, acyl-CoA:cholesterol acyl transferase (ACAT) (Rattus norvegicus, UniProt Q7TQM4); assay: Inhibitory action against acyl-CoA:cholesterol acyl transferase (ACAT), formation of labeled cholesterol ester, small intestine mucosal microsome fraction; type: biochemical, male Sprague-Dawley rat; details: 10^-6 M; read-out: ACAT Inhibitory Rate (%)
T1 construct: small intestine mucosal microsome fraction of a 6-week-old male Sprague-Dawley rat; from tissue; host or cells: rat small intestine mucosa, microsome fraction
T1 sequence (Q7TQM4 1-524): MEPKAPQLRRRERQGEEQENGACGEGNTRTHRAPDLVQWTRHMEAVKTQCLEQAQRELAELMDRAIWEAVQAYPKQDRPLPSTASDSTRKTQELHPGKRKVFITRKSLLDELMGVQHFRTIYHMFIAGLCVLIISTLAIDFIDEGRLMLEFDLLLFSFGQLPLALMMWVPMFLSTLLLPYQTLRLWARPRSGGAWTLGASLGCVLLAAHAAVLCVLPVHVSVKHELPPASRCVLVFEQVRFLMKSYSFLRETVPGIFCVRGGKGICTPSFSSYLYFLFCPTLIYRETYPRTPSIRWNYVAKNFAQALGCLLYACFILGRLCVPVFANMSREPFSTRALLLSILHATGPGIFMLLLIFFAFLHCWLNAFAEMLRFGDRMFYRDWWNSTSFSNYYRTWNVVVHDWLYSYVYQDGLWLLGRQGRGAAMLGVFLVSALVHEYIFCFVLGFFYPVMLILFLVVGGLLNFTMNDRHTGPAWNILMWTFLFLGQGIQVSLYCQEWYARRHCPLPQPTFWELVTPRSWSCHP
Procedure: An ACAT enzyme preparation was prepared from a small intestine mucosal microsome fraction of a 6-week-old male Sprague-Dawley rat, previously fasted for 20 hours, in accordance with the method described by Heider et al. in the Journal of Lipid Research, Vol. 24, page 1127 (1982).
ACAT activity was determined by measuring the amount of labeled cholesterol ester produced from [1-^14 C]-oleoyl-CoA and endogenous cholesterol, in accordance with the method of Helgerud et al. [Journal of Lipid Research, Vol. 22, page 271 (1981)].

[2] = Hypocholesterolemic activity (cholesterol-lowering activity) in hypercholesterolemic mice on high cholesterol-cholic acid diet; type: in vivo, ICR mice; details: vs control groups; for Reduction % HPL: heparin precipitating lipoproteins; for Reduction % cholesterol: serum
Procedure: Groups of 6 ICR mice (2 subgroups of 3 mice) were made hypercholesterolemic by being fed a high cholesterol-cholic acid diet for 7 days and administered with test compounds orally on the last two days. One-half of the total does was given on day 6 followed by the other half on day 7. After fasting overnight (16 hours after the last dose), the animals were sacrificed and sera were collected together for the each subgroup for measuring the levels of cholesterol and heparin precipitating lipoproteins (HPL). Both cholesterol and HPL levels were measured with autonalyzer by the enzymatic CHOD-PAP method for the former and by the turbidimetric method of Shurr et. al. [in C. E. Dau ed. Atherosclerosis Drug Discovery, Plenum Publishing, New York, pp. 215-229 & 231-249, 1976.] for the latter.

inhibition at 1 µM [1]	SMILES	Reduction % HPL ([2]; 3 mg/kg po)	Reduction % cholesterol ([2]; 3 mg/kg po)	Reduction % HPL ([2]; 10 mg/kg po)	Reduction % cholesterol ([2]; 10 mg/kg po)
99.2%	CC(C)c1cccc(C(C)C)c1NC(=O)Cc1oc(=O)c2ccc(Cl)cc2c1-c1ccccc1 [Example 48, N-[2,6-Bis(1-methylethyl)phenyl]-6-chloro-1-oxo-4-phenyl-1H-2-benzopyran-3-acetamide]	26%	27%	39%	32%
99.3%	Cc1ccccc1-c1c(CC(=O)Nc2c(C(C)C)cccc2C(C)C)c(=O)oc2ccc(Cl)cc12 [Example 82, N-[2,6-Bis(1-methylethyl)phenyl]-6-chloro-4-(2-methylphenyl)-2-oxo-2H-1-benzopyran-3-acetamide]	37%	31%	50%	40%
99.5%	COc1ccccc1-c1c(CC(=O)Nc2c(OC)cccc2OC)oc(=O)c2ccccc12 [Example 74, N-(2,6-Dimethoxyphenyl)-4-(2-methoxyphenyl)-1-oxo-1H-2-benzopyran-3-acetamide]	32%	29%	37%	33%
99.5%	COc1cccc(OC)c1NC(=O)Cc1c(-c2ccccc2C)c2cc(Cl)ccc2oc1=O [Example 84, 6-Chloro-N-(2,6-dimethoxyphenyl)-4-(2-methylphenyl)-2-oxo-2H-1-benzopyran-3-acetamide]	28%	15%	47%	33%
